Structures are written as SMILES. pEC50: −log10 of the molar value.

Tested on in one data set: not listed separately
The data set is described as follows: Hepatocyte stability (Example 36), human. Particulars: human hepatocytes 1 million cells/mL, 37° C., 4 hours, LC-MS/MS.
`COc1nc2c(cc1NCc1c(F)cc(F)cc1F)c(=O)c(C(=O)O)cn2[C@H](CO)C(C)C` [Example 20AA, (S)-1-(1-hydroxy-3-methylbutan-2-yl)-7-methoxy-4-oxo-6-(2,4,6-trifluorobenzylamino)-1,4-dihydro-1,8-naphthyridine-3-carboxylic acid]: the “% Remaining (human)” value stood at 75%. As for `COc1nc2c(cc1NCc1c(F)cc(F)cc1F)c(=O)c(C(=O)O)cn2[C@H](CO)C(C)(C)C` [Example 20NN, (S)-1-(1-hydroxy-3,3-dimethylbutan-2-yl)-7-methoxy-4-oxo-6-(2,4,6-trifluorobenzylamino)-1,4-dihydro-1,8-naphthyridine-3-carboxylic acid], the “% Remaining (human)” value came out at 61%.

Another data set has as its system human immunodeficiency virus type 1 (HIV-1). Description: microbe, parasite or virus in culture. The class given is cell-based. Particulars: Human immunodeficiency virus 1, HeLa, 48 h, HIV-1 luciferase reporter, HeLa cells, 48 hours after infection.
The pEC50 is the EC50 on a negative log10 scale, so that one unit is a factor of ten. Low readings indicate a large EC50, high ones a small EC50. For the molecule `COc1nc2c(cc1NCc1c(F)cc(F)cc1F)c(=O)c(C(=O)O)cn2[C@H](CO)C(C)C` [Example 20AA, (S)-1-(1-hydroxy-3-methylbutan-2-yl)-7-methoxy-4-oxo-6-(2,4,6-trifluorobenzylamino)-1,4-dihydro-1,8-naphthyridine-3-carboxylic acid], the pEC50 was over 8.00. Turning to `COc1nc2c(cc1NCc1c(F)cc(F)cc1F)c(=O)c(C(=O)O)cn2[C@H](CO)C(C)(C)C` [Example 20NN, (S)-1-(1-hydroxy-3,3-dimethylbutan-2-yl)-7-methoxy-4-oxo-6-(2,4,6-trifluorobenzylamino)-1,4-dihydro-1,8-naphthyridine-3-carboxylic acid], the pEC50 is over 8.00. Still for that read-out and setting: in the case of `CC(C)(C)[C@@H](CO)n1cc(C(=O)O)c(=O)c2cc(OCc3ccc(F)cc3F)ccc21` [Example 23B, (S)-6-(2,4-difluorobenzyloxy)-1-(1-hydroxy-3,3-dimethylbutan-2-yl)-4-oxo-1,4-dihydroquinoline-3-carboxylic acid] it was under 7.00. On to `CC(C)(C)[C@@H](CO)n1cc(C(=O)O)c(=O)c2cc(OCc3c(F)cc(F)cc3F)ccc21` [Example 23C, (S)-1-(1-hydroxy-3,3-dimethylbutan-2-yl)-4-oxo-6-(2,4,6-trifluorobenzyloxy)-1,4-dihydroquinoline-3-carboxylic acid], for which the pEC50 was 7.00 to 8.00. Take `CC(C)[C@@H](CO)n1cc(C(=O)O)c(=O)c2cc(NCc3ccc(F)cc3)c(N3CCOCC3)nc21` [Example 24A, (S)-6-(4-fluorobenzylamino)-1-(1-hydroxy-3-methylbutan-2-yl)-7-morpholino-4-oxo-1,4-dihydro-1,8-naphthyridine-3-carboxylic acid]: the pEC50 is under 7.00. `Cc1cc2c(cc1NCc1ccc(F)cc1)c(=O)c(C(=O)O)cn2[C@H](CO)C(C)(C)C` [Example 25C, (S)-6-(4-fluorobenzylamino)-1-(1-hydroxy-3,3-dimethylbutan-2-yl)-7-methyl-4-oxo-1,4-dihydroquinoline-3-carboxylic acid] showed a negative-log EC50 (pEC50) of 7.00 to 8.00.

Consider `Cc1cc2c(cc1NCc1c(F)cc(F)cc1F)c(=O)c(C(=O)O)cn2[C@H](CO)C(C)(C)C` [Example 25D, (S)-1-(1-hydroxy-3,3-dimethylbutan-2-yl)-7-methyl-4-oxo-6-(2,4,6-trifluorobenzylamino)-1,4-dihydroquinoline-3-carboxylic acid], for which the pEC50 was over 8.00. Take `CC(C)(C)[C@@H](CO)n1cc(C(=O)O)c(=O)c2cc(NCc3ccc(F)cc3)c(F)cc21` [Example 26A, (S)-7-fluoro-6-(4-fluorobenzylamino)-1-(1-hydroxy-3,3-dimethylbutan-2-yl)-4-oxo-1,4-dihydroquinoline-3-carboxylic acid]: the pEC50 was 7.00 to 8.00.

With `CC(C)(C)[C@@H](CO)n1cc(C(=O)O)c(=O)c2cc(NCc3c(F)cc(F)cc3F)c(Cl)cc21` [Example 26D, (S)-7-chloro-1-(1-hydroxy-3,3-dimethylbutan-2-yl)-4-oxo-6-(2,4,6-trifluorobenzylamino)-1,4-dihydroquinoline-3-carboxylic acid], the pEC50 is 7.00 to 8.00. The molecule `CC(C)(C)[C@@H](CO)n1cc(C(=O)O)c(=O)c2cc(NCc3ccc(F)cc3)c(Cl)cc21` [Example 26E, (S)-7-chloro-6-(4-fluorobenzylamino)-1-(1-hydroxy-3,3-dimethylbutan-2-yl)-4-oxo-1,4-dihydroquinoline-3-carboxylic acid] had a pEC50 of under 7.00. Turning to `CCOc1nc2c(cc1NCc1ccc(F)cc1)c(=O)c(C(=O)O)cn2[C@H](CO)C(C)C` [Example 27A, (S)-7-Ethoxy-6-(4-fluorobenzylamino)-1-(1-hydroxy-3-methylbutan-2-yl)-4-oxo-1,4-dihydro-1,8-naphthyridine-3-carboxylic acid], the pEC50 was under 7.00. Turning to `CCOc1nc2c(cc1NCc1c(F)cc(F)cc1F)c(=O)c(C(=O)O)cn2[C@H](CO)C(C)C` [Example 27B, (S)-7-Ethoxy-1-(1-hydroxy-3-methylbutan-2-yl)-4-oxo-6-(2,4,6-trifluorobenzylamino)-1,4-dihydro-1,8-naphthyridine-3-carboxylic acid], the negative-log EC50 (pEC50) was 7.00 to 8.00. For `COCCOc1cc2c(cc1NCc1ccc(F)cc1)c(=O)c(C(=O)O)cn2[C@H](CO)C(C)(C)C` [Example 27C, (S)-6-(4-fluorobenzylamino)-1-(1-hydroxy-3,3-dimethylbutan-2-yl)-7-(2-methoxyethoxy)-4-oxo-1,4-dihydroquinoline-3-carboxylic acid], the pEC50 was 7.00 to 8.00.

As for `CC(C)(C)[C@@H](CO)n1cc(C(=O)O)c(=O)c2cc(NCc3c(F)cc(F)cc3F)c(N3CCOCC3)nc21` [Example 27E, (S)-1-(1-hydroxy-3,3-dimethylbutan-2-yl)-7-morpholino-4-oxo-6-(2,4,6-trifluorobenzylamino)-1,4-dihydro-1,8-naphthyridine-3-carboxylic acid], the negative-log EC50 (pEC50) is 7.00 to 8.00.

For the molecule `COc1cc2c(cc1OCc1cccc(Cl)c1F)c(=O)c(C(=O)O)cn2[C@H](CO)C(C)(C)C` [Example 29A, (S)-6-(3-chloro-2-fluorobenzyloxy)-1-(1-hydroxy-3,3-dimethylbutan-2-yl)-7-methoxy-4-oxo-1,4-dihydroquinoline-3-carboxylic acid], the negative-log EC50 (pEC50) was under 7.00. `COc1cc2c(cc1OCc1c(F)cc(F)cc1F)c(=O)c(C(=O)O)cn2[C@H](CO)C(C)(C)C` [Example 29B, (S)-1-(1-hydroxy-3,3-dimethylbutan-2-yl)-7-methoxy-4-oxo-6-(2,4,6-trifluorobenzyloxy)-1,4-dihydroquinoline-3-carboxylic acid] gave a pEC50 of 7.00 to 8.00. In turn, `COc1cc2c(cc1OCc1ccccc1C(F)(F)F)c(=O)c(C(=O)O)cn2[C@H](CO)C(C)(C)C` [Example 29C, (S)-1-(1-hydroxy-3,3-dimethylbutan-2-yl)-7-methoxy-4-oxo-6-(2-(trifluoromethyl)benzyloxy)-1,4-dihydroquinoline-3-carboxylic acid] gave a pEC50 of under 7.00. The molecule `COc1cc2c(cc1OCc1cc(Cl)ccc1F)c(=O)c(C(=O)O)cn2[C@H](CO)C(C)(C)C` [Example 29D, (S)-6-(5-chloro-2-fluorobenzyloxy)-1-(1-hydroxy-3,3-dimethylbutan-2-yl)-7-methoxy-4-oxo-1,4-dihydroquinoline-3-carboxylic acid] had a pEC50 of under 7.00.

`COc1ccc(COc2cc3c(=O)c(C(=O)O)cn([C@H](CO)C(C)(C)C)c3cc2OC)cc1` [Example 29E, (S)-1-(1-hydroxy-3,3-dimethylbutan-2-yl)-7-methoxy-6-(4-methoxybenzyloxy)-4-oxo-1,4-dihydroquinoline-3-carboxylic acid]: the pEC50 is under 7.00.

Molecule `COc1cc2c(cc1Oc1c(F)cc(F)cc1F)c(=O)c(C(=O)O)cn2[C@H](CO)C(C)(C)C` [Example 29F] gave a pEC50 of under 7.00.

Consider `COc1cc2c(cc1Oc1ccc(C(F)(F)F)cc1N)c(=O)c(C(=O)O)cn2[C@H](CO)C(C)(C)C` [Example 29G], for which the pEC50 is under 7.00.

Tested on in the next data set: not listed separately
Description: Hepatocyte stability (Example 36), rat. Particulars: rat hepatocytes 1 million cells/mL, 37° C., 4 hours, LC-MS/MS.
With `COc1nc2c(cc1NCc1c(F)cc(F)cc1F)c(=O)c(C(=O)O)cn2[C@H](CO)C(C)C` [Example 20AA, (S)-1-(1-hydroxy-3-methylbutan-2-yl)-7-methoxy-4-oxo-6-(2,4,6-trifluorobenzylamino)-1,4-dihydro-1,8-naphthyridine-3-carboxylic acid], the “% Remaining (rat)” value was 43%. Turning to `COc1nc2c(cc1NCc1c(F)cc(F)cc1F)c(=O)c(C(=O)O)cn2[C@H](CO)C(C)(C)C` [Example 20NN, (S)-1-(1-hydroxy-3,3-dimethylbutan-2-yl)-7-methoxy-4-oxo-6-(2,4,6-trifluorobenzylamino)-1,4-dihydro-1,8-naphthyridine-3-carboxylic acid], the “% Remaining (rat)” value amounted to 46%.

The values are drawn from patent US20110166123A1, “NOVEL COMPOSITIONS AND METHODS OF USE” (priority 2008, published 2011).
